Experimental data published in paper PMC3595096 (Biochemistry, 2012).
“And” between values parts separate entries of the source, which are not always exact repeats. Equal entries are not always repeated. Structures can show the parent of a compound that is named as a salt.

How the values were obtained:
[1] = tested on: various subtypes of muscarinic receptor; settings: cited from earlier work
[2] = target: M2 receptor extracted from porcine atria (Sus scrofa, UniProt P06199); format: binding
human M2 receptor [3] = target: T1, human M2 receptor (Homo sapiens, UniProt P08172); format: binding
[4] = tested on: monomers of the M2 receptor; settings: cited from earlier work
M2 receptor [5] = target: T2, M2 receptor (Sus scrofa, UniProt P06199); format: binding
[6] = target: M2 receptor from porcine atria (Sus scrofa, UniProt P06199); experiment: biochemical; format: binding
human M2 receptor [7] = target: T1, human M2 receptor; format: binding; remark: listed apart in the source
[8] = target: M2 receptor in sarcolemmal membranes (Sus scrofa, UniProt P06199); experiment: biochemical; format: binding, porcine
[9] = tested on: muscarinic acetylcholine M2 receptors; settings: cited from earlier work
M2 receptor [10] = target: T2, M2 receptor; settings: cited from earlier work

T1 sequence (P08172 whole entry): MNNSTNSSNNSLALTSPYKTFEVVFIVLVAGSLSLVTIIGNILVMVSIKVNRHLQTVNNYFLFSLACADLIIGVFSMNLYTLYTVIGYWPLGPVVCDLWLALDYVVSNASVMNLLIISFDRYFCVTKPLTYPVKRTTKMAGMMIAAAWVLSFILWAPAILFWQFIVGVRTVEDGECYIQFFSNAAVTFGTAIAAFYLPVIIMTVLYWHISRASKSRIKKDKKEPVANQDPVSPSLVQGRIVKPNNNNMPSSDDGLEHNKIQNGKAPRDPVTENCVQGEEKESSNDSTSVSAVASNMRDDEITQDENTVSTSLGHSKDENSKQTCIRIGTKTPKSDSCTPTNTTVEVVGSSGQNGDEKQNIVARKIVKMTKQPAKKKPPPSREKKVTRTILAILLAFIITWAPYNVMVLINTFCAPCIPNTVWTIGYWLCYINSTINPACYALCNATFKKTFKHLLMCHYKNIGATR
Sequence of M2 receptor in sarcolemmal membranes (P06199 whole entry): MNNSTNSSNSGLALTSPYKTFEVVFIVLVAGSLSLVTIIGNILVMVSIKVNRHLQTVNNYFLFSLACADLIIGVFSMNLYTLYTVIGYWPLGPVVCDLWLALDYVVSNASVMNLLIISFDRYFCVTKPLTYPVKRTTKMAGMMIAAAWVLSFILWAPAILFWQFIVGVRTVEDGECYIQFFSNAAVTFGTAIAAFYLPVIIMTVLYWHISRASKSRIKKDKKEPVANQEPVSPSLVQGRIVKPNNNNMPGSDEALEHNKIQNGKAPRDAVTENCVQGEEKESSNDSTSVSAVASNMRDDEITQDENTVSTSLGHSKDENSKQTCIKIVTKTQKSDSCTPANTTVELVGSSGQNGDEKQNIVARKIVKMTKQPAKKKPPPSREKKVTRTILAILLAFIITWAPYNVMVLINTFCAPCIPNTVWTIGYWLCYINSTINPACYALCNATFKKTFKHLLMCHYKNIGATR
T2 sequence (P06199 whole entry): as above
Sequence of M2 receptor from porcine atria (P06199 whole entry): as above
Sequence of M2 receptor extracted from porcine atria (P06199 whole entry): as above

Compound: Clc1cccc(Cl)c1CO/N=C/c1cc[n+](CCC[n+]2ccc(/C=N/OCc3c(Cl)cccc3Cl)cc2)cc1 [Duo-3]
- Hill coefficient [1]: greater than 1

Compound: COc1ccc2c(c1)c1c3c(c4c5ccccc5n(C)c4c1n2CC(O)CN(C)C)C(=O)NC3=O (stereo not shown) [Go7874]
- Hill coefficient [1]: greater than 1

Compound: COC(=O)[C@@]1(OC)C[C@H]2O[C@]1(C)n1c3ccccc3c3c4c(c5c6ccccc6n2c5c31)C(=O)N(C)C4 [KT5823]
- Hill coefficient [1]: greater than 1

Compound: C[N+]1(C)[C@@H]2C[C@@H](OC(=O)[C@H](CO)c3ccccc3)C[C@H]1[C@@H]1O[C@@H]12 [N-[^3H]methylscopolamine, N-[^3H]Methylscopolamine]
- observed rate constant for dissociation kobsd, range of values [2]: 0.179 to 0.247 min⁻¹
- observed rate constant for dissociation kobsd, range of values (human M2 receptor [3]): 0.054 to 0.059 min⁻¹
- rate constant of net dissociation k (mean) (human M2 receptor [3]): 0.053 ± 0.002
- rate constant of dissociation [4]: 0.036 ± 0.001

Compound: CN1[C@@H]2CC[C@H]1C[C@@H](OC(=O)C(CO)c1ccccc1)C2 (stereo partly shown) [atropine, Atropine sulfate]
- Hill coefficient for inhibition of N-[3H]methylscopolamine (M2 receptor [5]): indistinguishable from 1

Compound: CC[N+](CC)(CC)CCOc1cccc(OCC[N+](CC)(CC)CC)c1OCC[N+](CC)(CC)CC [gallamine, gallamine triethiodide]
- EC50 [6]: ~71000 nM
- nH(1) (human M2 receptor [7]): 2.41
- cooperativity factor (1/α), Scheme 2 [8]: about 70
- EC50 ([8]; log K1): 53.7 nM and 282 nM
- log K [4]: −4.12
- cooperativity factor [9]: 46

Compound: Nc1c2c(nc3ccccc13)CCCC2 [tacrine]
- Hill coefficient [1]: greater than 1
- Hill coefficient (M2 receptor [10]): exceed 1
